Experimental data as given in ChEMBL document CHEMBL4038308, “Lipophosphonoxins II: Design, Synthesis, and Properties of Novel Broad Spectrum Antibacterial Agents” (J Med Chem, 2017).
≈ marks a conversion by molar mass, not a printed value. Calls of active or inactive are those of the source. No cut-off for these calls is given here.

Key:
Bacillus subtilis [1] = experiment: Antibacterial activity against Bacillus subtilis assessed as inhibition of DNA synthesis at 2 mg/L after 50 mins by [3H]thymidine incorporation assay; type: functional
Bacillus subtilis [2] = experiment: Antibacterial activity against Bacillus subtilis assessed as inhibition of plasma membrane lipids synthesis at 2 mg/L after 50 mins by [3H]-sodium acetate incorporation assay; type: functional
Bacillus subtilis [3] = experiment: Antibacterial activity against Bacillus subtilis assessed as inhibition of RNA synthesis at 2 mg/L after 50 mins by [3H]-uridine incorporation assay; type: functional
Bacillus subtilis [4] = experiment: Antibacterial activity against Bacillus subtilis assessed as inhibition of protein synthesis at 2 mg/L after 50 mins by [35S]-methionine incorporation assay; type: functional
Bacillus subtilis [5] = experiment: Antibacterial activity against Bacillus subtilis assessed as inhibition of peptidoglycan synthesis at 2 mg/L after 50 mins by [3H]-N-acetylglucosamine incorporation assay; type: functional
[6] = test system: Staphylococcus haemolyticus; experiment: Antibacterial activity against fluoroquinolne-resistant Staphylococcus haemolyticus 16568 after 24 hrs by microdilution method; type: functional; conditions: Staphylococcus haemolyticus, 16568, 24 h
Escherichia coli [7] = experiment: Bactericidal activity against Escherichia coli CCM 3954 assessed as reduction in bacterial count at 12.5 mg/L after 45 mins by time kill assay; type: functional
Bacillus subtilis [8] = experiment: Antibacterial activity against Bacillus subtilis assessed as inhibition of plasma membrane lipids synthesis at 1.5 mg/L after 50 mins by [3H]-sodium acetate incorporation assay; type: functional
[9] = Chemical stability of compound at 50 to 500 mg/L at pH 5 after 24 hrs at 37 degC by LC-MS analysis; type: physicochemical; conditions: buffer, pH 5, 24 h
[10] = test system: Stenotrophomonas maltophilia; experiment: Antibacterial activity against Stenotrophomonas maltophilia S2-23 after 24 hrs by microdilution method; type: functional; conditions: S2-23, 24 h
Enterococcus faecium = experiment: Antibacterial activity against vancomycin-resistant Enterococcus faecium 419/ana clinical isolates after 24 hrs by microdilution method; type: functional
BJ = experiment: Cytotoxicity against human BJ cells assessed as reduction in cell viability after 48 hrs by ATPlite reagent based assay
HepG2 [11] = experiment: Induction of apoptosis in human HepG2 cells assessed as caspase 3/7 activation up to 80 mg/L after 4 hrs by caspase-Glo 3/7 luminescent assay; type: cell-based; conditions: hepg2, 4 h
TERT-RPE1 [12] = experiment: Cytotoxicity against human RPE1 cells assessed as disruption of cell membrane integrity at >80 mg/L after 4 hrs by CytoTox-ONE-based assay; conditions: tert-rpe1, 4 h
Oryctolagus cuniculus [13] = experiment: Toxicity in topically dosed rabbit assessed as skin irritation by measuring behavioral abnormalities measured up to 7 days post dose; type: organism-based; conditions: in vivo, topical_or_ocular, 168 h
Acinetobacter baumannii = experiment: Antibacterial activity against Acinetobacter baumannii A3-08 after 24 hrs by microdilution method; type: functional; conditions: A3-08, 24 h
[14] = Chemical stability of compound at 50 to 500 mg/L at pH 8.8 after 24 hrs at room temperature by LC-MS analysis; type: physicochemical; conditions: buffer, pH 8.8, 24 h
Bacillus subtilis [15] = experiment: Antibacterial activity against Bacillus subtilis after 24 hrs by microdilution method; type: functional
[16] = Chemical stability of compound at 50 to 500 mg/L at pH 0.18 after 24 hrs at room temperature by LC-MS analysis; type: physicochemical; conditions: buffer, pH 0.18, 24 h
[17] = test system: Staphylococcus epidermidis; experiment: Induction of cytoplasmic membrane permeabilization in Staphylococcus epidermidis 8700/B assessed as increase in propidium iodide fluorescence intensity at 5 mg/L by spectrofluorometric analysis; type: functional
J774.A1 = experiment: Cytotoxicity against mouse J774A.1 cells assessed as damage to cell membrane by measuring propidium iodide intake at 5 mg/L by spectrofluorometric analysis; type: cell-based
HepG2 [18] = experiment: Cytotoxicity against human HepG2 cells assessed as disruption of cell membrane integrity after 4 hrs by CytoTox-ONE-based assay; conditions: hepg2, 4 h
Escherichia coli [19] = experiment: Induction of cytoplasmic membrane permeabilization in Escherichia coli CCM 3954 assessed as increase in propidium iodide fluorescence intensity at 5 mg/L by spectrofluorometric analysis; type: functional
Staphylococcus aureus [20] = experiment: Antibacterial activity against methicillin-resistant Staphylococcus aureus 4591 clinical isolates after 24 hrs by microdilution method; type: functional; conditions: Staphylococcus aureus, 4591, 24 h
TERT-RPE1 [21] = experiment: Cytotoxicity against human RPE1 cells assessed as disruption of cell membrane integrity after 4 hrs by CytoTox-ONE-based assay; conditions: tert-rpe1, 4 h
Escherichia coli [22] = experiment: Antibacterial activity against Escherichia coli CCM 3954 after 24 hrs by microdilution method; type: functional; conditions: CCM 3954, 24 h
Pseudomonas aeruginosa [23] = experiment: Antibacterial activity against Pseudomonas aeruginosa 16575 after 24 hrs by microdilution method; type: functional; conditions: Pseudomonas aeruginosa, 16575, 24 h
Bacillus subtilis [24] = experiment: Antibacterial activity against Bacillus subtilis assessed as inhibition of protein synthesis at 1.5 mg/L after 50 mins by [35S]-methionine incorporation assay; type: functional
Mus musculus [25] = experiment: Toxicity in ICR mouse assessed as mortality up to 2000 mg/kg, po administered as single dose measured for 2 weeks; type: organism-based; conditions: in vivo, 336 h
Staphylococcus aureus [26] = experiment: Bactericidal activity against Staphylococcus aureus CCM 4223 assessed as reduction in bacterial count at 25 mg/L after 6 hrs by time kill assay; type: functional
Staphylococcus aureus [27] = experiment: Antibacterial activity against Staphylococcus aureus CCM 4223 after 24 hrs by microdilution method; type: functional; conditions: CCM 4223, 24 h
[28] = Chemical stability of compound at 50 to 500 mg/L at pH 8.8 after 24 hrs at 37 degC by LC-MS analysis; type: physicochemical; conditions: buffer, pH 8.8, 24 h
[29] = Chemical stability of compound at 50 to 500 mg/L at pH 0.18 after 24 hrs at 37 degC by LC-MS analysis; type: physicochemical; conditions: buffer, pH 0.18, 24 h
Staphylococcus aureus [30] = experiment: Induction of cytoplasmic membrane permeabilization in Staphylococcus aureus CCM 4223 assessed as increase in propidium iodide fluorescence intensity at 5 mg/L by spectrofluorometric analysis; type: functional
Pseudomonas aeruginosa [31] = experiment: Induction of cytoplasmic membrane permeabilization in Pseudomonas aeruginosa CCM 3955 assessed as increase in propidium iodide fluorescence intensity at 5 mg/L by spectrofluorometric analysis; type: functional
Bacillus subtilis [32] = experiment: Antibacterial activity against Bacillus subtilis assessed as inhibition of RNA synthesis at 1.5 mg/L after 50 mins by [3H]-uridine incorporation assay; type: functional
Enterococcus faecalis = experiment: Antibacterial activity against Enterococcus faecalis CCM 4224 after 24 hrs by microdilution method; type: functional; conditions: CCM 4224, 24 h
Oryctolagus cuniculus [33] = experiment: Toxicity in topically applied rabbit assessed as skin irritation measured up to 14 days post dose; conditions: in vivo, topical_or_ocular, 336 h
[34] = Pore forming activity across black lipid bilayer membranes assessed as induction of variation in membrane current by measuring pore conductance at 5 ug/ml
[35] = Chemical stability of compound at 50 to 500 mg/L at pH 5 after 24 hrs at room temperature by LC-MS analysis; type: physicochemical; conditions: buffer, pH 5, 24 h
HepG2 [36] = experiment: Cytotoxicity against human HepG2 cells assessed as reduction in cell viability after 48 hrs by ATPlite reagent based assay; conditions: hepg2, 48 h
Escherichia coli [37] = experiment: Bactericidal activity against Escherichia coli CCM 3954 assessed as reduction in bacterial count at 25 mg/L after 30 mins by time kill assay; type: functional
Mus musculus [38] = experiment: Toxicity in ICR mouse assessed as body weight loss up to 2000 mg/kg, po administered as single dose measured for 2 weeks; type: organism-based; conditions: in vivo, 336 h
Lipid bilayer = experiment: Binding affinity to DOPG large unilamellar vesicle assessed as carboxyfluorescein leakage at 10 mg/L after 20 secs by fluorescence-based assay relative to control
Bacillus subtilis [39] = experiment: Antibacterial activity against Bacillus subtilis assessed as inhibition of DNA synthesis at 1.5 mg/L after 50 mins by [3H]thymidine incorporation assay; type: functional
Staphylococcus aureus [40] = experiment: Bactericidal activity against Staphylococcus aureus CCM 4223 assessed as reduction in bacterial count at 6.25 to 12.5 mg/L after 24 hrs by time kill assay; type: functional
Pseudomonas aeruginosa [41] = experiment: Antibacterial activity against Pseudomonas aeruginosa CCM 3955 after 24 hrs by microdilution method; type: functional; conditions: CCM 3955, 24 h
Salmonella enteritidis = experiment: Antibacterial activity against Salmonella enteritidis S2-25 after 24 hrs by microdilution method; type: functional, Salmonella enterica subsp. enterica serovar Enteritidis; conditions: Salmonella enterica, S2-25, 24 h
Burkholderia multivorans = experiment: Antibacterial activity against Burkholderia multivorans after 24 hrs by microdilution method; type: functional
Bacillus subtilis [42] = experiment: Antibacterial activity against Bacillus subtilis assessed as inhibition of peptidoglycan synthesis at 1.5 mg/L after 50 mins by [3H]-N-acetylglucosamine incorporation assay; type: functional
[43] = test system: Staphylococcus epidermidis; experiment: Antibacterial activity against Staphylococcus epidermidis 8700/B after 24 hrs by microdilution method; type: functional
Streptococcus agalactiae = experiment: Antibacterial activity against Streptococcus agalactiae after 24 hrs by microdilution method; type: functional
TERT-RPE1 [44] = experiment: Induction of apoptosis in human RPE1 cells assessed as caspase 3/7 activation up to 80 mg/L after 4 hrs by caspase-Glo 3/7 luminescent assay; type: cell-based; conditions: tert-rpe1, 4 h
[45] = Critical micellar concentration of the compound by capillary electrophoresis method
Escherichia coli [46] = experiment: Antibacterial activity against Escherichia coli 16702 after 24 hrs by microdilution method; type: functional; conditions: Escherichia coli, 16702, 24 h
Oryctolagus cuniculus [47] = experiment: Toxicity in topically applied rabbit assessed as skin irritation measured by measuring physiological abnormalities up to 7 days post dose; conditions: in vivo, topical_or_ocular, 168 h
TERT-RPE1 [48] = experiment: Cytotoxicity against human RPE1 cells assessed as reduction in cell viability after 48 hrs by ATPlite reagent based assay; conditions: tert-rpe1, 48 h

CO[C@H]1/C=C/O[C@@]2(C)Oc3c(C)c(O)c4c(O)c(c(/C=N/N5CCN(C)CC5)c(O)c4c3C2=O)NC(=O)/C(C)=C\C=C\[C@H](C)[C@H](O)[C@@H](C)[C@@H](O)[C@@H](C)[C@H](OC(C)=O)[C@@H]1C
inhibition (Bacillus subtilis [1]): Active | inhibition (Bacillus subtilis [2]): Active | inhibition (Bacillus subtilis [3]): Active | inhibition (Bacillus subtilis [4]): Active | inhibition (Bacillus subtilis [5]): Active

CCCCCCCCCCCCCCCOP(=O)(CCN(CCCNC(=N)N)CCCNC(=N)N)OC[C@H]1O[C@@H](n2ccc(=O)[nH]c2=O)[C@H](O)[C@@H]1O (some centres not stated)
MIC [6]: 1.56 µg/mL (≈ 2.05 µM) | Activity (Escherichia coli [7]): Active | inhibition (Bacillus subtilis [8]): inactive | Stability [9]: Stable | MIC [10]: 3.13 µg/mL (≈ 4.12 µM) | MIC (Enterococcus faecium): 50 µg/mL (≈ 65.8 µM) | Activity (BJ): 29.6 mg/L | Activity (HepG2 [11]): Non-Toxic | Activity (TERT-RPE1 [12]): Non-Toxic | Activity (Oryctolagus cuniculus [13]): Non-Toxic | MIC (Acinetobacter baumannii): 3.13 µg/mL (≈ 4.12 µM) | Stability [14]: Stable | MIC (Bacillus subtilis [15]): 0.39 µg/mL (≈ 0.513 µM) | Stability [16]: Stable | Activity [17]: Active | Activity (J774.A1): Non-Toxic | Activity (HepG2 [18]): Non-Toxic | Activity (Escherichia coli [19]): Active | MIC (Staphylococcus aureus [20]): 3.13 µg/mL (≈ 4.12 µM) | Activity (TERT-RPE1 [21]): Non-Toxic | MIC (Escherichia coli [22]): 0.78 µg/mL (≈ 1.03 µM) | MIC (Pseudomonas aeruginosa [23]): 1.56 µg/mL (≈ 2.05 µM) | inhibition (Bacillus subtilis [24]): inactive | Activity (Mus musculus [25]): Non-Toxic | Activity (Staphylococcus aureus [26]): Active | MIC (Staphylococcus aureus [27]): 3.13 µg/mL (≈ 4.12 µM) | Stability [28]: Stable | Stability [29]: Stable | Activity (Staphylococcus aureus [30]): Active | Activity (Pseudomonas aeruginosa [31]): Active | inhibition (Bacillus subtilis [32]): inactive | MIC (Enterococcus faecalis): 25 µg/mL (≈ 32.9 µM) | Activity (Oryctolagus cuniculus [33]): Non-Toxic | Activity [34]: 23 to 168 pS | Stability [35]: Stable | Activity (HepG2 [36]): 36.7 mg/L | Activity (Escherichia coli [37]): Active | Activity (Mus musculus [38]): Non-Toxic | Activity (Lipid bilayer): < 85% | inhibition (Bacillus subtilis [39]): inactive | Activity (Staphylococcus aureus [40]): Active | MIC (Pseudomonas aeruginosa [41]): 0.78 µg/mL (≈ 1.03 µM) | MIC (Salmonella enteritidis): 1.56 µg/mL (≈ 2.05 µM) | MIC (Burkholderia multivorans): 25 µg/mL (≈ 32.9 µM) | inhibition (Bacillus subtilis [42]): inactive | MIC [43]: 1.56 µg/mL (≈ 2.05 µM) | MIC (Streptococcus agalactiae): 1.56 µg/mL (≈ 2.05 µM) | Activity (TERT-RPE1 [44]): Non-Toxic | CMC [45]: 1.42 mM | MIC (Escherichia coli [46]): 0.78 µg/mL (≈ 1.03 µM) | Activity (Oryctolagus cuniculus [47]): Non-Toxic | Activity (TERT-RPE1 [48]): 39.8 mg/L
